Results taken from ChEMBL document CHEMBL1124633, “Antimalarials. 16. Synthesis of 2-substituted analogues of 8-[(4-amino-1-methylbutyl)amino]-6-methoxy-4-methyl-5-[3- (trifluoromethyl)phenoxy]quinoline as candidate antimalarials” (J Med Chem, 1989).

Legend:
[1] = Molar primaquine index is ratio of ED50 of Compound by ED50 of primaquine in rhesus monkey; assay type: functional
[2] = Acute toxicity administered intra peritoneally was determined in 85 female rats; settings: rat, in vivo, ip
[3] = Acute toxicity administered orally was determined in 85 female rats; settings: rat, in vivo, po
[4] = Acute toxicity administered orally was determined in 74 male rats; settings: rat, in vivo, po
[5] = Acute toxicity administered intra peritoneally was determined in 74 male rats; settings: rat, in vivo, ip
[6] = Molar primaquine index is ratio of ED50 of Primaquine by ED50 of primaquine in rhesus monkey; assay type: functional
[7] = Acute toxicity administered intraperitoneally was determined in male rats; assay type: organism-based; settings: rat, in vivo, ip
[8] = Acute toxicity administered orally was determined in male rats; assay type: organism-based; settings: rat, in vivo, po
[9] = Acute toxicity administered intraperitoneally was determined in female rats; assay type: organism-based; settings: rat, in vivo, ip
[10] = Acute toxicity administered orally was determined in female rats; assay type: organism-based; settings: rat, in vivo, po

## COc1cc(NC(C)CCCN)c2nccc(C)c2c1Oc1cccc(C(F)(F)F)c1 (configuration not stated)
[1]
  Ratio: 6.8
[2]
  LD50: 54 mg/kg
[3]
  LD50: 401 mg/kg
[4]
  LD50: 256 mg/kg
[5]
  LD50: 86 mg/kg

## COc1cc(NC(C)CCCN)c2nc(OC)cc(C)c2c1 (configuration not stated)
[1]
  Ratio: 6.8

## COc1cc(NC(C)CCCN)c2ncccc2c1 (configuration not stated) [PRIMAQUINE]
[6]
  Ratio: 1

## COc1cc(C)c2c(Oc3cccc(C(F)(F)F)c3)c(OC)cc(NC(C)CCCN)c2n1 (configuration not stated) [TAFENOQUINE]
[1]
  Ratio: 12.8
[7]
  LD50: 102 mg/kg
[8]
  LD50: 429 mg/kg
[9]
  LD50: 71 mg/kg
[10]
  LD50: 416 mg/kg
